Measurements reported in PubChem BioAssay AID602267 (Broad Institute, 2012).
Active and inactive are the calls of the source.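 How the source made its calls: active means signal falls with dose and the fitted half-maximal concentration is at or below twice the top valid tested dose; inconclusive means flat curve with 30 to 70% inhibition, or poor fit; inactive means wrong direction, flat within 30%, or potency beyond limit.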

Molecular target: Golgi-associated PDZ and coiled-coil motif-containing protein (Homo sapiens) (UniProt Q9HD26)
Assay: CAL PDZ domain peptide-binding inhibitors, dose response, biochemical, fluorescence polarization, untagged CAL PDZ, cherry-pick (AID 602267)
Settings: purified CAL PDZ, TMR-peptide fluorescence polarization, 1 h

Structure (SMILES) | AC50
CCOc1ccc(S(=O)(=O)Nc2cc(SCC(=O)O)c(O)c3ccccc23)cc1 | 39 µM
COC(=O)c1ccccc1-c1c2ccc(=N)cc-2oc2cc(N)ccc12 | 2.03 µM

Same assay, conditions: purified CAL PDZ, TMR-peptide fluorescence polarization, 1 h; at 16 µM (top of the series)

Structure (SMILES) | activity change, negative = inhibition
COc1ccc2c(c1)c(=Cc1ccc(N(C)C)cc1)c1cc(-c3ccccc3)[n+](C)n12 | inactive
Oc1ccccc1N=Cc1c(O)ccc2oc3c(c12)CCCC3 | inactive
CCOC(=O)C1(Cc2cccc(Cl)c2)CCCN(C(=O)c2cccc(C)n2)C1 (stereo not drawn) | inactive

Same assay, conditions: purified CAL PDZ, TMR-peptide fluorescence polarization, 1 h; at 50 µM (top of the series)

Structure (SMILES) | activity change, negative = inhibition
CCOC(=O)CCNC(=O)N1CCCC(CNS(=O)(=O)Cc2ccccc2)C1 (stereo not drawn) | inactive
CCOC(=O)c1ccc(N=C2SC(C(=O)NC)CC(=O)N2Cc2ccc(F)cc2)cc1 (stereo not drawn) | inactive
Cc1c(C(=O)OCC(=O)NC(=O)NC2CCCCC2)cccc1[N+](=O)[O-] | inactive
COc1ccc(/C=N/N2CCN(c3ccccc3OC)CC2)cc1Br | inactive
CN(c1nc(-c2ccc(Br)cc2)cs1)C1CCS(=O)(=O)C1 (stereo not drawn) | inactive
CC(C)=Cc1oc2ccc([N+](=O)[O-])cc2c1N1CCOCC1 | inactive
O=C1c2ccccc2C(O)N1c1ccccc1 (stereo not drawn) | inactive
Cc1ccccc1-n1c(C)c(C#N)c(=O)c(-[n+]2ccccc2)c1[S-] | inactive
O=C(CCC(=O)N1CCN(c2ccccc2F)CC1)N1CCN(c2ccccc2)CC1 | inactive
O=C1CC(c2ccccc2)=C(c2ccccc2)C1 | inactive
c1cc(-c2nnc(-c3ccncc3)o2)ccn1 | inactive
O=C(c1cc(Br)ccc1Cl)N1CCN(c2ccccn2)CC1 | inactive
O=C(O)c1ccc(Oc2cc(Oc3ccc(C(=O)O)cc3)cc([N+](=O)[O-])c2)cc1 | inactive
O=C(CN1CC[n+]2c(-c3cccs3)csc21)c1ccc(-c2ccccc2)cc1 | inactive
Cc1ccc(SCC(=O)NCc2ccc(F)cc2)cc1 | inactive
CCc1nc2ccccc2c(C(=O)Oc2cccc3cccnc23)c1C | inactive
CCc1nc(SCC(=O)c2ccccc2)c2c(=O)n(C)c(=O)n(C)c2n1 | inactive
O=C(O)c1cccc(Nc2ccc([N+](=O)[O-])cn2)c1 | inactive
COc1ccc(CN2CCCC(N3CCN(c4cccc(Cl)c4)CC3)C2)cc1OC (stereo not drawn) | inactive
CCC(=O)c1cn(CC(=O)Nc2cccc(C)c2C)c2ccccc12 | inactive
CC1(C2CC2)NC(=O)N(CC(=O)NCC(=O)Nc2ccc(F)c(F)c2F)C1=O (stereo not drawn) | inactive
COc1ccc(CN2CN(C3CCCC3)CSC2=S)cc1 | inactive

Structure (SMILES) | activity change, negative = inhibition
Cc1ccccc1N1CCN(S(=O)(=O)c2ccccc2)CC1 | inactive
CCC(C(=O)NN1C(=O)c2ccccc2C1=O)c1ccccc1 (stereo not drawn) | inactive
CN=c1scc(C)n1/N=C/c1cc(Br)c(O)c(Br)c1 | inactive
CC1CCN(CCCNC(=O)c2ccc3c(=O)n(Cc4ccc(Cl)cc4)c(=S)[nH]c3c2)CC1 | inactive
Cc1ccc(C)c(N(CC(=O)NC(C)(C)C)C(=O)CCC(=O)Nc2nccs2)c1 | inactive
O=C(CSc1nc2c(sc3ccccc32)c(=O)n1Cc1ccccc1)NCC1CCCO1 (stereo not drawn) | inactive
CS(=O)(=O)c1ccc(Cl)c(NC(=O)COC(=O)c2c(Cl)cccc2Cl)c1 | inactive
S=C(NCCc1ccccc1)NC1CCC(NC(=S)NCCc2ccccc2)CC1 (stereo not drawn) | inactive
Cc1c(Cl)c(C(F)(F)F)nn1CC(=O)NCc1ccco1 | inactive
CSc1ccc(CNCCCSc2ncccn2)cc1 | inactive
O=C(c1cc2cc([N+](=O)[O-])ccc2oc1=O)N1CCN(C2CCCCC2)CC1 | inactive
C[C@H](NC(=O)c1ccccc1Cl)C(=O)NCc1cccs1 | inactive
Cc1cc(C)c(S(=O)(=O)NCc2ccc3c(c2)OCO3)c(C)c1 | inactive
COc1cc(NC(=O)c2cccs2)ccc1NC(=O)c1ccccc1Cl | inactive
O=C(Nc1cc(Cl)ccc1N1CCOCC1)c1ccc2c(c1)OCCO2 | inactive
CC1CCC(NC(=O)c2ccc3c(c2)S(=O)(=O)c2ccccc2C3=O)CC1 (stereo not drawn) | inactive
O=C(NNC(=O)c1c(F)cccc1F)c1sccc1-n1cccc1 | inactive
COc1ccc(/C=N/NC(=O)c2cccc(C(F)(F)F)c2)cc1 | inactive
c1ccc(C(Nc2cccnc2)c2ccccc2)cc1 | inactive
CC1CCN(C(=O)COC(=O)c2cccs2)CC1 | inactive
CC1CCC(NS(=O)(=O)c2ccc3c(c2)n(C)c(=O)c(=O)n3C)CC1 (stereo not drawn) | inactive
CC(=O)NC1C(=O)N(CCN2CCOCC2)c2ccc(Cl)cc21 (stereo not drawn) | inactive

Structure (SMILES) | activity change, negative = inhibition
CCN(CC)S(=O)(=O)c1cc(C(=O)Oc2ccccc2OC)ccc1OC | inactive
CCc1nnc(NS(=O)(=O)c2ccc(NC(=O)CCC(=O)O)cc2)s1 | inactive
O=C(O)c1ccc(S(=O)(=O)c2ccc3c(c2)C(=O)N(c2ccccc2[N+](=O)[O-])C3=O)cc1 | inactive
CC1=C(C#N)C(=O)NC(=O)/C1=C\c1ccc(-c2cc(C)c(C)cc2[N+](=O)[O-])o1 | inactive
Cc1ccccc1S(=O)(=O)NC(=NCc1ccc(F)cc1)c1ccccc1 | inactive
CCOC(=O)NC(=O)COC(=O)CCCSc1nc2ccccc2s1 | inactive
O=C(CN(Cc1ccccc1)S(=O)(=O)c1ccc(F)cc1)NCCC1=CCCCC1 | inactive
CN(C)c1ccc(C=c2c3ccccc3n3c2cc(-c2ccccc2)[n+]3C)cc1 | inactive
O=C(Nc1cccc(F)c1)c1ccco1 | inactive
O=[N+]([O-])c1ccccc1S(=O)(=O)NC1CCCCCCC1 | inactive
COc1ccc(-c2nc3ccccc3o2)cc1OC | inactive
COc1ccc(CNCCc2c[nH]c3ccccc23)c(OC)c1OC | inactive
COc1ccc(OC)c(S(=O)(=O)NCCCn2ccnc2)c1 | inactive
Cc1ccc2nc(NC(=O)COC(=O)c3ccncc3)sc2c1 | inactive
CCCc1cc2c(cc1NC(=O)c1ccco1)OCO2 | inactive
O=C(Oc1c(CN2CCOCC2)cc(Cl)c2cccnc12)c1ccc(F)cc1 | inactive
CCOC(=O)C1=C(C)OC(N)=C(C#N)C1c1cccc(C)c1 (stereo not drawn) | inactive
CN(CC1CCCO1)S(=O)(=O)c1ccc(C(=O)Nc2ccc([N+](=O)[O-])cc2)cc1 (stereo not drawn) | inactive
COc1ccccc1C(=O)Nc1ccc2c(c1)CN(C(=O)CSC)CC2 | inactive
O=C1CN=C(c2ccccc2)c2oc3ccc(Br)cc3c2N1 | inactive
COc1ccc(CC(=O)NCC2CCCN(Cc3cccc(SC)c3)C2)cc1 (stereo not drawn) | inactive
C/C(CC(=O)Nc1ccc(C)c(Cl)c1)=N\NC(=O)Cc1cnc(N)s1 | inactive

Structure (SMILES) | activity change, negative = inhibition
Cc1nc(Cl)sc1C(=O)Nc1cc(F)cc(F)c1 | inactive
O=C(c1ccccc1Cl)N(Cc1ccc(Cl)c(Cl)c1)N1C(=O)CCCC1=O | inactive
CN(C(=O)CC1C(=O)NCCN1CC(c1ccccc1)c1ccccc1)C(C1CC1)C1CC1 (stereo not drawn) | inactive
COC(=O)C1CCN(C(=O)/C(C)=C\c2ccccc2)CC1 | inactive
CC(c1ccccc1)N1CCN(C(=O)CCl)CC1 (stereo not drawn) | inactive
Brc1cccc(CNCC2CCCO2)c1 (stereo not drawn) | inactive
O=C(c1c(Cl)cccc1Cl)N1CCCCCC1 | inactive
CCOC(=O)C1(CCOc2ccccc2)CCN(CC(O)CO)CC1 (stereo not drawn) | inactive
COc1ccc(C(=O)NC2(C(F)(F)F)C(=O)Nc3c2c(=O)[nH]c(=O)n3CCc2ccc(OC)c(OC)c2)cc1 (stereo not drawn) | inactive
O=C(NC1CCCN(Cc2ccc(Cl)cc2)C1)c1cccc(N2CCCC2=O)c1 (stereo not drawn) | inactive
Cc1cc(SC2CCOC2=O)nc2ccccc12 (stereo not drawn) | inactive
CN(C)c1ccc(P(=O)(OC2CCCCC2)C(O)c2cccnc2)cc1 (stereo not drawn) | inactive
COCC(=O)Nc1ccc2nc3n(c(=O)c2c1)CCCCC3 | inactive
CCn1c(=O)c(C(C)=O)c(O)c2ccccc21 | inactive
O=S(=O)(c1cccc2ccccc12)N1CCCCC1 | inactive
C/C(=C/c1ccccc1)C(=O)N1CCN(c2ccccc2)CC1 | inactive
COCCN(Cc1nc(C(c2ccccc2)c2ccccc2)no1)C(C)C | inactive
O=C(NCc1ccccc1Cl)C1CC(=O)N(Cc2ccccc2)C1 (stereo not drawn) | inactive
COc1ccc(CN(C)C(C)C(=O)NC2CCCc3ccccc32)cc1 (stereo not drawn) | inactive
COc1ccc(Cl)cc1C(=O)Nc1ccc2c(c1)OCCO2 | inactive
O=C(CCN1C(=O)c2ccccc2C1=O)CN1CCOCC1 | inactive
CNC(=O)c1nnn(Cc2ccccc2)c1NC(C)=O | inactive
